# Source: PubChem BioAssay (NCI)
#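 Test compounds were applied to cells in 96-well plates for 48 hours at 5 doses. The concentration for 50% growth inhibition is given as GI50. The concentration for full growth arrest is given as TGI.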
# Experiments:
# Assay in all cases: NCI anticancer screen, dose series, 48 h
# NCI-H460 lung = tested on: NCI-H460 lung
# SK-MEL-28 melanoma = tested on: SK-MEL-28 melanoma
# IGROV1 ovarian = tested on: IGROV1 ovarian
# A549 NSCLC = tested on: A549 NSCLC
# SR leukemia = tested on: SR leukemia
# TK-10 renal = tested on: TK-10 renal
# COLO 205 colon = tested on: COLO 205 colon
# SK-OV-3 ovarian = tested on: SK-OV-3 ovarian
# SN12C renal = tested on: SN12C renal
# NCI-H522 lung = tested on: NCI-H522 lung
# MDA-MB-435 = tested on: MDA-MB-435
# SNB-75 CNS = tested on: SNB-75 CNS
# K-562 leukemia = tested on: K-562 leukemia
structure (smiles),measurement,setting,value
FC(F)(F)C(C1=NC(C(F)(F)F)(C(F)(F)F)N=C(N2CCOCC2)O1)C(F)(F)F,TGI,NCI-H460 lung,> 100 µM
same,TGI,SK-MEL-28 melanoma,52.4 µM
same,TGI,IGROV1 ovarian,57.1 µM
same,TGI,A549 NSCLC,62.8 µM
same,TGI,SR leukemia,61.2 µM
same,TGI,TK-10 renal,83.6 µM
same,TGI,COLO 205 colon,38.9 µM
same,TGI,SK-OV-3 ovarian,> 100 µM
same,TGI,SN12C renal,36.1 µM
same,TGI,NCI-H522 lung,46.2 µM
same,TGI,MDA-MB-435,59.3 µM
same,TGI,SNB-75 CNS,> 100 µM
C=CCOC1OC(CS(=O)(=O)O)C(O)C(O)C1O (configuration not stated),TGI,NCI-H460 lung,> 100 µM
same,TGI,SK-MEL-28 melanoma,> 100 µM
same,TGI,IGROV1 ovarian,> 100 µM
same,TGI,SR leukemia,> 100 µM
same,TGI,TK-10 renal,> 100 µM
same,TGI,COLO 205 colon,> 100 µM
same,TGI,SK-OV-3 ovarian,> 100 µM
same,TGI,SN12C renal,> 100 µM
same,TGI,K-562 leukemia,> 100 µM
same,TGI,MDA-MB-435,> 100 µM
same,TGI,SNB-75 CNS,> 100 µM
COc1ccc2oc(=O)cc(C)c2c1,TGI,NCI-H460 lung,> 100 µM
same,TGI,SK-MEL-28 melanoma,> 100 µM
same,TGI,IGROV1 ovarian,> 100 µM
same,TGI,A549 NSCLC,> 100 µM
same,TGI,SR leukemia,> 100 µM
same,TGI,TK-10 renal,> 100 µM
same,TGI,COLO 205 colon,> 100 µM
same,TGI,SN12C renal,> 100 µM
same,TGI,K-562 leukemia,> 100 µM
same,TGI,NCI-H522 lung,> 100 µM
same,TGI,MDA-MB-435,> 100 µM
same,TGI,SNB-75 CNS,> 100 µM
C=CC(=O)N1CCN(c2nc(OC[C@@H]3CCCN3C)nc3c2CCN(c2cccc4cccc(C)c24)C3)C[C@@H]1CC#N,GI50,SK-MEL-28 melanoma,1.71 µM
same,TGI,SK-MEL-28 melanoma,3.09 µM
same,GI50,SK-OV-3 ovarian,1.68 µM
same,TGI,SK-OV-3 ovarian,3.17 µM
same,GI50,SN12C renal,1.46 µM
same,TGI,SN12C renal,2.87 µM
same,GI50,K-562 leukemia,1.71 µM
same,TGI,K-562 leukemia,4.28 µM
same,GI50,MDA-MB-435,1.7 µM
same,TGI,MDA-MB-435,3.19 µM
same,GI50,SNB-75 CNS,1.09 µM
same,TGI,SNB-75 CNS,2.31 µM
Cc1ccc2cc3c(ccc4ccccc43)c3c2c1CC3,TGI,NCI-H460 lung,> 100 µM
same,TGI,SK-MEL-28 melanoma,> 100 µM
same,TGI,IGROV1 ovarian,> 100 µM
same,TGI,A549 NSCLC,> 100 µM
same,TGI,SR leukemia,> 100 µM
same,TGI,TK-10 renal,> 100 µM
same,TGI,COLO 205 colon,> 100 µM
same,TGI,SK-OV-3 ovarian,> 100 µM
same,TGI,SN12C renal,> 100 µM
same,TGI,K-562 leukemia,> 100 µM
same,TGI,NCI-H522 lung,> 100 µM
same,TGI,MDA-MB-435,> 100 µM
same,TGI,SNB-75 CNS,> 100 µM
CCCCCCCCCCCCCCCC[N+](C)(C)CCN(Cc1ccc(OC)cc1)c1ncccn1,GI50,SK-MEL-28 melanoma,2.1 µM
same,TGI,SK-MEL-28 melanoma,4.5 µM
same,GI50,SR leukemia,1.25 µM
same,TGI,SR leukemia,> 100 µM
same,GI50,SK-OV-3 ovarian,2.24 µM
same,TGI,SK-OV-3 ovarian,7.24 µM
same,GI50,K-562 leukemia,0.838 µM
same,TGI,K-562 leukemia,> 100 µM
same,GI50,SNB-75 CNS,2.28 µM
same,TGI,SNB-75 CNS,6.53 µM
O=C(O)CSCC(=O)O,TGI,NCI-H460 lung,> 100 µM
same,TGI,SK-MEL-28 melanoma,> 100 µM
same,TGI,IGROV1 ovarian,> 100 µM
same,TGI,A549 NSCLC,> 100 µM
same,TGI,SR leukemia,> 100 µM
same,TGI,TK-10 renal,> 100 µM
same,TGI,SN12C renal,> 100 µM
same,TGI,K-562 leukemia,> 100 µM
same,TGI,NCI-H522 lung,> 100 µM
same,TGI,MDA-MB-435,> 100 µM
same,TGI,SNB-75 CNS,> 100 µM
CS/C(=N\C(=S)Nc1ccccc1)Nc1ccccc1,TGI,NCI-H460 lung,48.7 µM
same,TGI,SK-MEL-28 melanoma,> 100 µM
same,TGI,IGROV1 ovarian,97.6 µM
same,TGI,A549 NSCLC,59.2 µM
same,TGI,SR leukemia,64.1 µM
same,TGI,TK-10 renal,54.7 µM
same,TGI,COLO 205 colon,78.1 µM
same,TGI,SK-OV-3 ovarian,58.9 µM
same,TGI,SN12C renal,67.6 µM
same,TGI,K-562 leukemia,> 100 µM
same,TGI,NCI-H522 lung,38 µM
same,TGI,SNB-75 CNS,84.7 µM
Cc1nc(Nc2ccc(F)cc2)c2sc(=S)n(-c3ccc(F)cc3)c2n1,TGI,NCI-H460 lung,28.8 µM
same,TGI,SK-MEL-28 melanoma,27.8 µM
same,TGI,IGROV1 ovarian,22.4 µM
same,TGI,A549 NSCLC,29.5 µM
same,TGI,SR leukemia,> 100 µM
same,TGI,TK-10 renal,27.5 µM
same,TGI,COLO 205 colon,27.5 µM
same,TGI,SK-OV-3 ovarian,40.2 µM
same,TGI,SN12C renal,27 µM
same,TGI,K-562 leukemia,> 100 µM
same,TGI,NCI-H522 lung,30.1 µM
same,TGI,MDA-MB-435,22.7 µM
same,TGI,SNB-75 CNS,29.6 µM
COc1cc2nc(-c3cccs3)nc(N3C(c4ccc(O)cc4)=NNC(=O)c4ccccc43)c2cc1OC,TGI,NCI-H460 lung,82.1 µM
same,TGI,SK-MEL-28 melanoma,> 100 µM
same,TGI,IGROV1 ovarian,97.7 µM
same,TGI,A549 NSCLC,> 100 µM
same,TGI,TK-10 renal,70.5 µM
same,TGI,COLO 205 colon,52.1 µM
same,TGI,SK-OV-3 ovarian,> 100 µM
same,TGI,SN12C renal,50.2 µM
same,TGI,K-562 leukemia,> 100 µM
same,TGI,NCI-H522 lung,> 100 µM
same,TGI,MDA-MB-435,58.9 µM
same,TGI,SNB-75 CNS,64 µM
Nc1ccc2nc3ccc(N)cc3[n+](-c3ccccc3)c2c1,TGI,NCI-H460 lung,> 100 µM
same,TGI,SK-MEL-28 melanoma,> 100 µM
same,TGI,IGROV1 ovarian,> 100 µM
same,TGI,A549 NSCLC,> 100 µM
same,TGI,SR leukemia,> 100 µM
same,TGI,TK-10 renal,> 100 µM
same,TGI,COLO 205 colon,26.9 µM
same,TGI,SK-OV-3 ovarian,> 100 µM
same,TGI,SN12C renal,> 100 µM
same,TGI,K-562 leukemia,> 100 µM
same,TGI,NCI-H522 lung,> 100 µM
same,TGI,MDA-MB-435,> 100 µM
same,TGI,SNB-75 CNS,> 100 µM
COc1cc(-c2c(C#N)c(N)c(C#N)c3c2COc2ccccc2-3)cc(OC)c1OC,TGI,NCI-H460 lung,> 100 µM
same,TGI,SK-MEL-28 melanoma,> 100 µM
same,TGI,IGROV1 ovarian,> 79.6 µM
same,TGI,A549 NSCLC,> 100 µM
same,TGI,SR leukemia,> 100 µM
same,TGI,TK-10 renal,40.3 µM
same,TGI,COLO 205 colon,> 100 µM
same,TGI,SK-OV-3 ovarian,32.4 µM
same,TGI,SN12C renal,> 84.4 µM
same,TGI,K-562 leukemia,> 100 µM
same,TGI,NCI-H522 lung,> 100 µM
same,TGI,MDA-MB-435,> 100 µM
COc1ccc(C2C(=O)C(Cl)N2Nc2nc(C)cc(=O)[nH]2)cc1OC (configuration not stated),TGI,NCI-H460 lung,> 100 µM
same,TGI,SK-MEL-28 melanoma,> 100 µM
same,TGI,IGROV1 ovarian,70.2 µM
same,TGI,A549 NSCLC,> 100 µM
same,TGI,SR leukemia,> 100 µM
same,TGI,TK-10 renal,> 100 µM
same,TGI,COLO 205 colon,> 100 µM
same,TGI,SN12C renal,94.2 µM
same,TGI,K-562 leukemia,> 100 µM
same,TGI,SNB-75 CNS,52.7 µM
CC(=O)Oc1ccc2c(C)cc(=O)oc2c1,TGI,NCI-H460 lung,> 100 µM
same,TGI,SK-MEL-28 melanoma,> 100 µM
same,TGI,IGROV1 ovarian,> 100 µM
same,TGI,A549 NSCLC,> 100 µM
same,TGI,SR leukemia,> 100 µM
same,TGI,TK-10 renal,> 100 µM
same,TGI,COLO 205 colon,> 100 µM
same,TGI,SK-OV-3 ovarian,> 100 µM
same,TGI,SN12C renal,> 100 µM
same,TGI,K-562 leukemia,> 100 µM
same,TGI,NCI-H522 lung,> 100 µM
same,TGI,MDA-MB-435,> 100 µM
same,TGI,SNB-75 CNS,> 100 µM
Nc1ccc(C2NC(=O)Cc3c2ccc2ccccc32)cc1 (configuration not stated),TGI,NCI-H460 lung,> 100 µM
same,TGI,SK-MEL-28 melanoma,> 100 µM
same,TGI,IGROV1 ovarian,> 100 µM
same,TGI,A549 NSCLC,> 100 µM
same,TGI,SR leukemia,> 100 µM
same,TGI,TK-10 renal,> 100 µM
same,TGI,COLO 205 colon,> 100 µM
same,TGI,SK-OV-3 ovarian,> 100 µM
same,TGI,K-562 leukemia,> 100 µM
same,TGI,NCI-H522 lung,> 100 µM
same,TGI,MDA-MB-435,> 100 µM
same,TGI,SNB-75 CNS,> 100 µM
NC(=O)NO,TGI,NCI-H460 lung,2040 µM
same,TGI,SK-MEL-28 melanoma,> 2500 µM
same,TGI,IGROV1 ovarian,> 2020 µM
same,TGI,A549 NSCLC,2340 µM
same,TGI,SR leukemia,1620 µM
same,TGI,TK-10 renal,> 2500 µM
same,TGI,COLO 205 colon,> 2500 µM
same,TGI,SK-OV-3 ovarian,> 2500 µM
same,TGI,SN12C renal,2390 µM
same,TGI,K-562 leukemia,> 2260 µM
same,TGI,NCI-H522 lung,2270 µM
same,TGI,MDA-MB-435,> 2500 µM
same,TGI,SNB-75 CNS,2310 µM
COc1cccc(Nc2nc(-c3cccs3)nc3ccc(Br)cc23)c1,TGI,NCI-H460 lung,> 100 µM
same,TGI,IGROV1 ovarian,> 100 µM
same,TGI,A549 NSCLC,> 100 µM
same,TGI,SR leukemia,> 100 µM
same,TGI,TK-10 renal,> 100 µM
same,TGI,COLO 205 colon,> 100 µM
same,TGI,SK-OV-3 ovarian,> 100 µM
same,TGI,SN12C renal,> 100 µM
same,TGI,K-562 leukemia,> 100 µM
same,TGI,NCI-H522 lung,> 100 µM
same,TGI,MDA-MB-435,> 100 µM
COc1ccccc1N1C(Cl)C(=O)C1c1c[nH]c2ccccc12 (configuration not stated),TGI,NCI-H460 lung,> 100 µM
same,TGI,SK-MEL-28 melanoma,> 100 µM
same,TGI,IGROV1 ovarian,> 100 µM
same,TGI,A549 NSCLC,> 100 µM
same,TGI,SR leukemia,> 100 µM
same,TGI,TK-10 renal,> 100 µM
same,TGI,COLO 205 colon,> 100 µM
same,TGI,SK-OV-3 ovarian,> 100 µM
same,TGI,SN12C renal,> 100 µM
same,TGI,K-562 leukemia,> 100 µM
same,TGI,NCI-H522 lung,> 100 µM
same,TGI,SNB-75 CNS,> 100 µM
O=C(O)C(O)Cc1ccccn1 (configuration not stated),TGI,NCI-H460 lung,> 100 µM
same,TGI,SK-MEL-28 melanoma,> 100 µM
same,TGI,IGROV1 ovarian,> 100 µM
same,TGI,A549 NSCLC,> 100 µM
same,TGI,SR leukemia,> 100 µM
same,TGI,TK-10 renal,> 100 µM
same,TGI,COLO 205 colon,> 100 µM
same,TGI,SK-OV-3 ovarian,> 100 µM
same,TGI,K-562 leukemia,> 100 µM
same,TGI,NCI-H522 lung,> 100 µM
same,TGI,MDA-MB-435,> 100 µM
N=C(N)C(N=Nc1ccccc1)C(N)=O (configuration not stated),TGI,NCI-H460 lung,> 100 µM
same,TGI,SK-MEL-28 melanoma,> 100 µM
same,TGI,IGROV1 ovarian,> 100 µM
same,TGI,A549 NSCLC,> 100 µM
same,TGI,TK-10 renal,> 100 µM
same,TGI,COLO 205 colon,> 100 µM
same,TGI,SK-OV-3 ovarian,> 100 µM
same,TGI,SN12C renal,> 100 µM
same,TGI,K-562 leukemia,> 100 µM
same,TGI,NCI-H522 lung,> 100 µM
same,TGI,MDA-MB-435,> 100 µM
same,TGI,SNB-75 CNS,> 100 µM
